The target in this experiment is Lysine-specific demethylase 1 (LSD1) (Homo sapiens, UniProt O60341). Put plainly: in vitro LSD1 activity assay. The following applies: read-out: % inhibition at 1000 nM. The format is biochemical.

On to `C=C1C(=O)O[C@H]2[C@H]1[C@H](OC(=O)/C(C)=C/CO)CC(=C)[C@@H]1C=C[C@@](C)(O)[C@H]21` [eupalinilide B], for which the inhibition – broadly, the drop in the measured response relative to a control, in per cent – at 1 µM was found to be 78%.
